Data from publication PMC12599236, “Itaconate utilisation by the human pathogen Pseudomonas aeruginosa requires uptake via the IctPQM TRAP transporter” (Biochemical Journal, 2025).
pKd: −log10 of the molar value.

Columns and labels:
Type in all cases: binding
IctP (PA0884) [1] = molecular target: T1, IctP (PA0884) (Pseudomonas aeruginosa, UniProt Q9I561); assay: intrinsic tryptophan fluorescence titration
T1 construct: SBP domain (pa0884), recombinant from E. coli

IctP (PA0884) [2] = molecular target: T1, IctP (PA0884); assay: crystal structure ([…] Å); intrinsic tryptophan fluorescence titration; nanoDSF (~[…] °C shift)
IctP (PA0884) [3] = molecular target: T1, IctP (PA0884); assay: as above; remark: listed apart in the source

T1 sequence (Q9I561 entry or part of it): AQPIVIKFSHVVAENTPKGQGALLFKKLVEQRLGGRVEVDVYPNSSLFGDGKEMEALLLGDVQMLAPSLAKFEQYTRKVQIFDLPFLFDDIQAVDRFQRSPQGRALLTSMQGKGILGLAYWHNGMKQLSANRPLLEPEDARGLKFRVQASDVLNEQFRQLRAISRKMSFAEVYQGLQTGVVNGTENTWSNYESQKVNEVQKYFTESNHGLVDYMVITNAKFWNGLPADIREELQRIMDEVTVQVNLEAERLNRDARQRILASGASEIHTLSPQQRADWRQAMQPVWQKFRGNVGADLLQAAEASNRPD

O=C(O)C[C@H](O)C(=O)O [L-malate]
pKd (IctP (PA0884) [1]): 4.79

C=C(CC(=O)O)C(=O)O [itaconate, 2-methylenesuccinate]
pKd (IctP (PA0884) [2]): 3.75

O=C(O)CCC(=O)O [succinate]
pKd (IctP (PA0884) [3]): 4.49
